In patent US20100130598A1, “METHODS FOR INDUCING PROGRAMMED CELL DEATH” (Novogen Research Pty Ltd., priority 2008, published 2010):

Experiments:
MIAPaCa-2 cells [1] = test: Apoptosis/necrosis by FACS (Annexin-V-FITC/PI), MIAPaCa-2; assay type: cell-based, human
Protocol: (§1) Cells. Human pancreatic cell lines HPAC, MIAPaCa-2 and PANC-1 were obtained from the ATCC. (Manassas, Va.). The cells were maintained in DMEM media with Gln and high glucose (Mediatech, Manassas, Va.) with 10% fetal bovine serum (FBS, HyClone, Logan, Utah) and pencillin/streptomycin.
(§2) FACS Analysis. Apoptosis was measured by FACS analysis using Annexin-V-FITC and propidium iodide (PI) (Biovision, Mountain View, Calif.) as probes (Ahn et al., 2003). Mitochondrial membrane potential was measured by FACS analysis using JC-1 (Biovision) as a probe (Ahn et al., 2003). Cell cycle was analyzed on ethanol-fixed, RNaseA-treated cells staining with PI. In each spectrum, 10,000 gated events were recorded and analyzed with a FACSCalibur (BD Biosciences. San Jose, Calif.). All experiments were done in triplicate, error bars represent one standard deviation. Caspase inhibitor I (zVAD-fmk) was obtained from Calbiochem.

[2] = test system: Caspase 2, 3 and 9 in PANC-1 cells; test: In situ caspase activity by flow cytometry, PANC-1; assay type: cell-based, human; details: PANC-1, 10 μM, after 48 hrs
Protocol: as §1
Caspase Activity After 48 h treatment with 10 μM Compound 10, HPAC, MIAPaCa-2 and PANC-1 cells were harvested by trypsinization and resuspended in DMEM media with 10% FBS. The cells were incubated with caspase substrates for 1 h at 37° C., 5% CO2, then probed with Annexin-V-Cy5 and sytox blue. Caspase +ve cells were gated as shown in the histograms and these cells are indicated on the Annexin-V-Cy5/sytox blue spectra as blue cells. In situ caspase activity was assayed using fluorescent substrates. For Caspase 2, FITC-VDVAD-fmk (Biovision K182-100), for Caspase 3, FITC-DEVD-fmk (K183-100) and for Caspase 9, FITC-LEHD-fmk (K199-100) was used. These substrates bind irreversibly to their respective activated caspases, and caspase activation was quantitated by flow cytometry. […] Caspase activation, apoptosis and necrosis were measured simultaneously using a violet, blue and red laser in a BD LSRII flow cytometer.

HPAC cells = test: Mitochondrial membrane potential by FACS (JC-1), HPAC; assay type: cell-based, human; details: dose-dependent, 48 hrs of treatment
Protocol: as §1, §2

MIAPaCa-2 cells [3] = test: Cell cycle analysis by FACS (PI), MIAPaCa-2; assay type: cell-based, human; details: MIAPaCa-2, 10 μM
Protocol: as §1, §2

EndoG = test: Immunohistochemistry of xenograft tumors for EndoG; assay type: in vivo, NCR nude mice; details: paraffin-embedded tumor sections; control tumors only cytoplasmic staining
Protocol: Mouse xenograft studies. The in vivo study as approved by the Yale University Institutional Animal Care & Use Committee. Cells (1×10^6 cells) were resuspended in 200 μ1 total volume of 50% RPMI and 50% BD Matrigel Matrix (BD Biosciences, Bedford, Mass.) and injected subcutaneously into the right flank of NCR nude mice. Intra-peritoneal therapy commenced eight days post-inoculation as follows: Paclitaxel 10 mg/kg q×3d, Carboplatin 40 mg/kg q×7d, and Compound 1 in 20% HPBCD, 100 mg/kg every day. Control groups received 20% HPBCD in PBS. Mice were treated and observed for 3 weeks. Tumor size was determined by caliper measurements and anti-tumor activity was analyzed with respect to maximal tumor inhibition (treated/control, T/C) as described previously (Kamsteeg et al, 2003).
Immunohistochemistry. Immunohistochemistry was performed as described previously (Kelly et al, 2006) using rabbit anti-EndoG (Lifespan Biosciences, Seattle, Wash.) at 1:100 dilution.

[4] = MIAPaCa-2, dose-escalating, 48 hr exposure

Structure (SMILES)	effect of zVAD-fmk pre-treatment on induced necrosis (MIAPaCa-2 cells [1]; MIAPaCa-2, 10 μM zVAD-fmk 1 h before 10 μM Compound 10)	effect of zVAD-fmk pre-treatment on induced apoptosis (MIAPaCa-2 cells [1]; MIAPaCa-2, 10 μM zVAD-fmk 1 h pre-treatment, 10 μM Compound 10 or 50 ng/mL TRAIL)	apoptosis (MIAPaCa-2 cells [1]; [4])	necrosis (MIAPaCa-2 cells [1]; [4])	caspase 2, 3 and 9 activation [2]	mitochondrial depolarization (HPAC cells)	time of entering G2/M arrest post treatment (MIAPaCa-2 cells [3]) [h]	localization of EndoG in tumors (EndoG)
COc1ccc(C2c3ccc(O)cc3OCC2c2ccc(O)cc2)cc1 (centres unmarked) [Compound 10, 3-(4-hydroxyphenyl)-4-(4-methoxyphenyl)chroman-7-ol]	inhibited	apparently enhanced	induced apoptosis in a dose-dependent fashion	Very little necrosis	activated	depolarized	24 to 48	
COc1ccc(C2c3ccc(O)c(C)c3OCC2c2ccc(O)cc2)cc1 (centres unmarked) [Compound 1, 3-(4-hydroxyphenyl)-4-(4-methoxyphenyl)-8-methylchroman-7-ol]								nuclear localization
